Experimental findings from patent US20100069316A1, “TREATMENT FOR MULTIPLE MYELOMA” (Ares Trading S.A., priority 2006, published 2010) are described below.

What all share (assay type): cell-based, human
In one assay the test system is XG12 myeloma cell line. Description: Cell proliferation assay (tritiated thymidine incorporation), XG12. Conditions: Homo sapiens, XG12, alone or with fixed Velcade/Melphalan. The protocol:
(§1) Myeloma cells were harvested in the exponential growth phase (at day 3 after culture passage when the cell concentration is around 5×10^5 cells/ml). Cells were washed twice, cultured for 3 hours in RPMI1640 and 10% FCS, washed twice. This makes it possible to remove cell-bound growth factors (in particular recombinant IL-6). Then cells are plated in 96-well flat-bottomed microplates at various concentrations depending on their doubling time: • 5×10^3 cells/well in 100 μl for the cell lines: XG-1, XG-7 • 10^4 cells/well in […] for the cell lines: XG-2, XG-4, XG-6, XG-11, PRMI8226, L363 • 2×10^4 cells/well in 100 μl for the cell lines: XG-3, XG-12, XG-13, XG-14, XG-19, XG-20
(§2) The culture medium used were: • PRMI1640, 10% FCS and 0.5 ng/ml of IL-6 for XG-1, XG-2, XG-3, XG-4, XG-6, XG-7, XG-11, XG-12, XG-13, XG-19, XG-20 cells • X-VIVO20 and 0.5 ng/ml IL-6 for XG-14 cells • PRMI1640 and 10% FCS for RPMI8226 and L363 cells
(§3) The diluted compounds, DMSO or control culture medium were added in 100 μl at the start of the culture. Three culture wells were done for one compound dilution and the experiments were done twice (finally six culture wells for one compound dilution).
(§4) Cells were cultured for 4 days. Eight hours before the end of the culture, 0.5 μCi of tritiated thymidine were added in 50 μl of RPMI1640 and 10% FCS. Cells were then extracted with a cell collector and the thymidine incorporation was determined using a beta cell counter.
(§5) For each experiment, the mean tritiated thymidine incorporations (mean values determined on three culture wells) were plotted against the logarithmic concentrations of the compound. The curves were fitted with exponential regression, which was determined using the concentrations defining the inhibition response (usually 3-4 concentrations).
(§6) The concentrations yielding 50% and 90% inhibition of the proliferation of myeloma cells were determined with these regression curves.
(§7) The concentration yielding 10% (IC10) or 50% (IC50) inhibition of the myeloma cell lines were determined and the data are listed in Table 2.
(§8) Compound A was tested in combination with melphalan or Velcade. Increasing concentration of compound A (0, 0.01, 0.03, 0.12, 0.37, 1.1, 3.1, 10, 30 μM) were applied on 4 myeloma cell lines alone or in combination with Velcade or melphalan at concentration yielding around 10% or 50% inhibition.
For orientation: Uptake of a labelled nucleoside into DNA is a usual measure of proliferation.

The test system of the next assay is XG7 myeloma cell line. Description: Cell proliferation assay (tritiated thymidine incorporation), XG7. The note with it: Homo sapiens, XG7, alone or with fixed Velcade/Melphalan. The protocol:
as §1, §2, §3, §4, §5, §6, §7, §8

For assay [1], the system named is XG-12 myeloma cell line. Description: Detection of apoptosis (FITC-annexin V), XG-12. The note with it: day 3 of culture. An excerpt: (§9) Apoptotic cells were detected using fluorescein isothiocyanate-labelled annexin V (FITC-annexin-V, Boehringer Mannheim). Annexin V has a high affinity for phosphatidylserine present on the outer cytoplasmic membrane of apoptotic cells. Cells were washed, labeled with FITC-annexin-V according to the manufacturer's recommendations and analyzed with a FACScan flow cytometer using Cell Quest software (Becton Dickinson, Moutain View, Calif., USA).
(§10) Two myeloma cell lines (XG-3 and XG-12) that are sensitive to compound A (1-(4-{4-[4-(4-chlorophenyl)-pyrimidin-2-ylamino]-benzoyl}-piperazin-1-yl)-ethanone) were selected for the study. To assess the effect of compound A on myeloma cell survival, the percentage apoptotic cells was determined using binding of annexin V to apoptotic cells. The effect of compound A on the cell cycle was assessed by evaluating the percentage of cells in the S phase of the cell cycle by incorporation of BrdU-FITC. Apoptosis, cell cycle and cell numeration were evaluated daily on a four day culture period on the cell lines using the IC10, IC50 and I90 respective doses of compound A.

For assay [2], the system named is XG-3 myeloma cell line. The assay can be described thus: Detection of apoptosis (FITC-annexin V), XG-3. Conditions: day 3 of culture.
From the text: as §9, §10

In assay [3] the test system is XG-12 myeloma cell line. The assay can be described thus: Cell cycle measurement (BrdU/PI, S phase), XG-12. Conditions: day 3 of culture. The procedure:
(§11) The cell cycle distribution of the cell lines was assessed by flow cytometry analysis by propidium iodide (PI) and bromodeoxyuridine (BrdU) double-staining. Thirty minutes before stopping the culture, BrdU (10 μM) were added to the cultures and then the cells were collected by centrifugation, washed twice in phosphate buffer saline (PBS) and fixed in 70% ethanol for 20 minutes at room temperature. After two washes with PBS, cells were resuspended in 50 μL of 3N HCl, 0.5% Tween 20 and incubated 20 minutes at 20° C. to denature DNA. […] The fluorescence of FL1-H (BrdU) and FL2-A (PI) were analyzed on a FACScan flow cytometer using Cell Quest software (Becton Dickinson).
as §10

The subject of assay [4] is XG-3 myeloma cell line. Description: Cell numeration, XG-3. The note with it: day 3 of culture. The procedure:
as §10

The subject of the next assay is 10 myeloma cell lines. The assay can be described thus: Cell proliferation assay, mean over 10 myeloma cell lines. Conditions: mean determined on 10 myeloma cell lines. The procedure: as §1, §2, §3, §4, §5, §6
In the next assay the test system is 4 myeloma cell lines. The assay can be described thus: Combination study of compound A with Velcade or melphalan, proliferation. The note with it: XG3, XG12, XG7, L363. The procedure: as §1, §2, §3
Cells were cultured for 4 days. […] Cells were then extracted with a cell collector and the thymidine incorporation was determined using a beta cell counter. […]

Assay [5] relates to myeloma cell lines (XG-3 and XG-12). The assay can be described thus: Induction of apoptosis (annexin V) in myeloma cell lines. Conditions: XG-3 and XG-12, IC10, IC50, IC90 doses, four day culture.
From the text: as §9, §10

For assay [6] the test system is unchanged. Description: Cells in S phase (BrdU) in myeloma cell lines. Conditions: XG-3 and XG-12, IC10, IC50, IC90 doses. The protocol:
as §11, §10

Setting [7] is: concentration of compound A yielding 50% inhibition of proliferation, read-out: IC50.
[8] abbreviates: concentration of compound A yielding 90% inhibition of proliferation.
The mark [9] stands for this setting: XG-12, compound A at IC50 concentration.
Setting [10] is: XG-12, compound A at IC90 concentration.
Where [11] appears, read: XG-3, compound A at IC10 concentration.
Setting [12] is: XG-3, compound A at IC50 concentration.
Where [13] appears, read: XG-3, compound A at IC90 concentration.

Molecules are shown by their SMILES. “Also recorded” adds a separate entry of the source.

As a reminder, the IC90 is the point of the concentration-response curve where the effect stands at 90%. For `CC(=O)N1CCN(C(=O)c2ccc(Nc3nccc(-c4ccc(Cl)cc4)n3)cc2)CC1` [Compound A, 1-(4-{4-[4-(4-Chloro-phenyl)-pyrimidin-2-ylamino]-benzoyl}-piperazin-1-yl)-ethanone], the IC50 in the assay on XG12 myeloma cell line (setting [7]) was 0.974 µM; in the assay with XG7 myeloma cell line (setting [7]), 6.36 µM; in the assay with 10 myeloma cell lines (Homo sapiens, read-out: mean concentration yielding 50% inhibition) it was 3.3 µM. Also, the IC90 in the assay with XG12 myeloma cell line (setting [8]) amounted to 3.92 µM; in the assay with XG7 myeloma cell line (setting [8]) it was 9.33 µM. The “Annexin V (%) percentage of apoptotic cells” value in the assay on XG-12 myeloma cell line [1] (setting [9]) was determined as 39.5%; with XG-12 myeloma cell line [1] (setting [10]), 79.8%; in the assay with XG-3 myeloma cell line [2] (setting [11]), 29.2%; in the assay on XG-3 myeloma cell line [2] (setting [12]) it was 30.7%; with XG-3 myeloma cell line [2] (setting [13]) it was 48.2%. Moreover, the “S phase (%) percentage of cells in the S phase” value with XG-12 myeloma cell line [3] (setting [9]) turned out to be 37.3%; in the assay with XG-12 myeloma cell line [3] (setting [10]), 6.8%. In addition, the “Cells (×10^6/ml) cell counts” value in the assay with XG-3 myeloma cell line [4] (setting [11]) is recorded as 0.68 ×10^6/ml; in the assay on XG-3 myeloma cell line [4] (setting [12]), 0.47 ×10^6/ml; in the assay with XG-3 myeloma cell line [4] (setting [13]), 0.29 ×10^6/ml. Further, the “mean concentration yielding 10% inhibition” value with 10 myeloma cell lines amounted to 1 µM. The “mean concentration yielding 90% inhibition” value in the assay with 10 myeloma cell lines was determined as 10 µM. In addition, in the assay with 4 myeloma cell lines (Melphalan at IC10 or IC50), the “effect of combination with Melphalan on inhibition of myeloma cell proliferation” value is “additive effect”. Moreover, the “effect of combination with Velcade on inhibition of myeloma cell proliferation” value with 4 myeloma cell lines (Velcade at IC10 or IC50) is reported as “additive effect”. Moreover, in assay [5], the “induction of apoptosis of myeloma cell lines” value was “induced apoptosis of myeloma cell lines; also recorded: dose- and time-dependent”. Also, the “number of cells in the S phase of the cell cycle” value in assay [6] is given as “induced a decrease in the number of cell in the S phase”.
